Here are results for 19 compounds from patent US12187713B2, “Immunomodulators, compositions and methods thereof” (Betta Pharmaceuticals Co., Ltd, priority 2019, dated 2025).

PD-1/PD-L1, sequence (Q9NZQ7 19-238): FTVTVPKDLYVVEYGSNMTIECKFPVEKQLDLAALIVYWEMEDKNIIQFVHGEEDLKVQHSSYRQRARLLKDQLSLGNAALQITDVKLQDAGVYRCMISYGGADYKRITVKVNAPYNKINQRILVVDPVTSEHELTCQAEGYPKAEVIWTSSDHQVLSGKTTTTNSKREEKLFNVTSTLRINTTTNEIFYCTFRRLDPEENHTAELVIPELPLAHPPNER

The first assay addresses PD-1/PD-L1 (Homo sapiens (Human), UniProt Q9NZQ7). Put plainly: PD-1/PD-L1 Binding Assay (Alphascreen). As to conditions: numeric values. How it is done:
PD-1/PD-L1 Binding Assay (Alphascreen)
The assays were conducted in a standard black 384-well polystyrene plate with a final volume of 20 μL. Inhibitors were first serially diluted in DMSO and then added to the plate wells before the addition of other reaction components. The final concentration of DMSO in the assay was […]. Add 100 nL/well of compound to the 384 reaction plate (6008280, PerkinElmer) with Echo and centrifuge at 1000 rpm for 1 minute. Add 5 μL/well 4×PD-L1 solutions to the 384 reaction plate, centrifuge at 1000 rpm for 1 minute, and add 5 μL/well 4×PD-1 solutions, centrifuge at 1000 rpm for 1 minute, and incubate at 25° C. for 15 minutes. The concentrations of the compounds were 300, 100, 33.33, 11.11, 3.70, 1.23, 0.41, 0.137, 0.046, 0.015, 0 nM, respectively. Add 10 μL/well 2× Anti-6×His AlphaLISA Acceptor beads and Streptavidin Donor beads solution (PerkinElmer-AL356F) to the above 384 reaction plate, centrifuge at 1000 rpm for 1 minute, and incubate at 25° C. in the dark for 120 minutes. Read the AlphaLISA signal value using the Envision Reader. IC50 determination was performed by fitting the curve of percent control activity versus the log of the inhibitor concentration using the GraphPad Prism 8.0 software.
For orientation: Alpha assays give light when donor and acceptor beads are brought close together.
The IC50 is the midpoint of a concentration-inhibition curve. A low value points to higher potency. Compound `Cc1c(-c2nc3cc(CN(C)[C@@H]4CCC[C@@H]4O)c(OC(F)F)cc3o2)cccc1-c1cccc(-c2nc3cc(CN4CCC[C@H]4C(=O)O)c(OC(F)F)cc3o2)c1C` [Example 1, ((6-(difluoromethoxy)-2-(3′-(6-(difluoromethoxy)-5-((((1R,2S)-2-hydroxycyclopentyl)(methyl)amino)methyl)benzo[d]oxazol-2-yl)-2,2′-dimethyl-[1,1′-biphenyl]-3-yl)benzo[d]oxazol-5-yl)methyl)-L-proline] showed an IC50 of 0.89 nM. For `Cc1c(-c2nc3cc(CN4CCC[C@H]4C(=O)O)c(OC(F)F)cc3o2)cccc1-c1cccc(-c2nc3cc(CN4CC(C)(C)C4)c(OC(F)F)cc3o2)c1C#N` [Example 4, ((2-(2′-cyano-3′-(6-(difluoromethoxy)-5-((3,3-dimethylazetidin-1-yl)methyl)benzo[d]oxazol-2-yl)-2-methyl-[1,1′-biphenyl]-3-yl)-6-(difluoromethoxy)benzo[d]oxazol-5-yl)methyl)-L-proline], the IC50 is 1.4 nM. Compared with the last compound, the IC50 is about 1.6-fold higher.

Compound `Cc1c(-c2nc3cc(CN4CCC[C@H]4C(=O)O)c(OC(F)F)cc3o2)cccc1-c1cccc(-c2nc3cc(CN4CCCC4)c(OC(F)F)cc3o2)c1F` [Example 6, ((6-(difluoromethoxy)-2-(3′-(6-(difluoromethoxy)-5-(pyrrolidin-1-ylmethyl)benzo[d]oxazol-2-yl)-2′-fluoro-2-methyl-[1,1′-biphenyl]-3-yl)benzo[d]oxazol-5-yl)methyl)-L-proline] returned an IC50 of 4.3 nM.

Take `Cc1c(-c2nc3cc(CNCCO)c(OC(F)F)cc3o2)cccc1-c1cccc(-c2nc3cc(CN4CCC[C@H]4C(=O)O)c(OC(F)F)cc3o2)c1C` [Example 7, ((6-(difluoromethoxy)-2-(3′-(6-(difluoromethoxy)-5-(((2-hydroxyethyl)amino)methyl)benzo[d]oxazol-2-yl)-2,2′-dimethyl-[1,1′-biphenyl]-3-yl)benzo[d]oxazol-5-yl)methyl)-L-proline]: the IC50 was 0.61 nM. `Cc1c(-c2nc3cc(CN4CC(F)C4)c(OC(F)F)cc3o2)cccc1-c1cccc(-c2nc3cc(CN4CCC[C@H]4C(=O)O)c(OC(F)F)cc3o2)c1C` [Example 9, ((6-(difluoromethoxy)-2-(3′-(6-(difluoromethoxy)-5-((3-fluoroazetidin-1-yl)methyl)benzo[d]oxazol-2-yl)-2,2′-dimethyl-[1,1′-biphenyl]-3-yl)benzo[d]oxazol-5-yl)methyl)-L-proline] gave an IC50 of 18 nM. Same read-out and setting: as for `Cc1c(-c2nc3cc(CN4CCC[C@H]4C(N)=O)c(OC(F)F)cc3o2)cccc1-c1cccc(-c2nc3cc(CN4CCC[C@H]4C(=O)O)c(OC(F)F)cc3o2)c1C` [Example 11, ((2-(3′-(5-(((S)-2-carbamoylpyrrolidin-1-yl)methyl)-6-(difluoromethoxy)benzo[d]oxazol-2-yl)-2,2′-dimethyl-[1,1′-biphenyl]-3-yl)-6-(difluoromethoxy)benzo[d]oxazol-5-yl)methyl)-L-proline], the figure is 33 nM.

`Cc1c(-c2nc3cc(CN(C)CCO)c(OC(F)F)cc3o2)cccc1-c1cccc(-c2nc3cc(CN4CCC[C@H]4C(=O)O)c(OC(F)F)cc3o2)c1C` [Example 17, ((6-(difluoromethoxy)-2-(3′-(6-(difluoromethoxy)-5-(((2-hydroxyethyl)(methyl)amino)methyl)benzo[d]oxazol-2-yl)-2,2′-dimethyl-[1,1′-biphenyl]-3-yl)benzo[d]oxazol-5-yl)methyl)-L-proline] displayed an IC50 of 1.2 nM. `Cc1c(-c2nc3cc(CNC[C@@H]4CCC(=O)N4)c(OC(F)F)cc3o2)cccc1-c1cccc(-c2nc3cc(CN4CCC[C@H]4C(=O)O)c(OC(F)F)cc3o2)c1C` [Example 19, ((6-(difluoromethoxy)-2-(3′-(6-(difluoromethoxy)-5-(((((S)-5-oxopyrrolidin-2-yl)methyl)amino)methyl)benzo[d]oxazol-2-yl)-2,2′-dimethyl-[1,1′-biphenyl]-3-yl)benzo[d]oxazol-5-yl)methyl)-L-proline] gave an IC50 of 1.3 nM.

On to `Cc1c(-c2nc3cc(CN4CC(O)C4)c(OC(F)F)cc3o2)cccc1-c1cccc(-c2nc3cc(CN4CCC[C@H]4C(=O)O)c(OC(F)F)cc3o2)c1C` [Example 20, ((6-(difluoromethoxy)-2-(3′-(6-(difluoromethoxy)-5-((3-hydroxyazetidin-1-yl)methyl)benzo [d]oxazol-2-yl)-2,2′-dimethyl-[1,1′-biphenyl]-3-yl)benzo[d]oxazol-5-yl)methyl)-L-proline], for which the IC50 came to 1.6 nM. On the same count and under the same terms, as for `CCNCc1cc2nc(-c3cccc(-c4cccc(-c5nc6cc(CN7CCC[C@H]7C(=O)O)c(OC(F)F)cc6o5)c4C)c3C)oc2cc1OC(F)F` [Example 21, ((6-(difluoromethoxy)-2-(3′-(6-(difluoromethoxy)-5-((ethylamino)methyl)benzo[d]oxazol-2-yl)-2,2′-dimethyl-[1,1′-biphenyl]-3-yl)benzo[d]oxazol-5-yl)methyl)-L-proline], the figure is 0.59 nM; as for `Cc1c(-c2nc3cc(CN)c(OC(F)F)cc3o2)cccc1-c1cccc(-c2nc3cc(CN4CCC[C@H]4C(=O)O)c(OC(F)F)cc3o2)c1C` [Example 24, ((2-(3′-(5-(aminomethyl)-6-(difluoromethoxy)benzo[d]oxazol-2-yl)-2,2′-dimethyl-[1,1′-biphenyl]-3-yl)-6-(difluoromethoxy)benzo[d]oxazol-5-yl)methyl)-L-proline], 0.98 nM; as for `Cc1c(-c2nc3cc(CN[C@@H]4CCC[C@@H]4O)c(OC(F)F)cc3o2)cccc1-c1cccc(-c2nc3cc(CN4CCC[C@H]4C(=O)O)c(OC(F)F)cc3o2)c1C` [Example 25, ((6-(difluoromethoxy)-2-(3′-(6-(difluoromethoxy)-5-((((1R,2S)-2-hydroxycyclopentyl)amino)methyl)benzo[d]oxazol-2-yl)-2,2′-dimethyl-[1,1′-biphenyl]-3-yl)benzo[d]oxazol-5-yl)methyl)-L-proline], 0.3 nM. Still for that read-out and setting: as for `Cc1c(-c2nc3cc(CN[C@H]4CCC[C@H]4O)c(OC(F)F)cc3o2)cccc1-c1cccc(-c2nc3cc(CN4CCC[C@H]4C(=O)O)c(OC(F)F)cc3o2)c1C` [Example 27, ((6-(difluoromethoxy)-2-(3′-(6-(difluoromethoxy)-5-((((1S,2R)-2-hydroxycyclopentyl)amino)methyl)benzo[d]oxazol-2-yl)-2,2′-dimethyl-[1,1′-biphenyl]-3-yl)benzo[d]oxazol-5-yl)methyl)-L-proline], the figure is 0.66 nM; as for `Cc1c(-c2nc3cc(CNCCS(C)(=O)=O)c(OC(F)F)cc3o2)cccc1-c1cccc(-c2nc3cc(CN4CCC[C@H]4C(=O)O)c(OC(F)F)cc3o2)c1C` [Example 32, ((6-(difluoromethoxy)-2-(3′-(6-(difluoromethoxy)-5-(((2-(methylsulfonyl)ethyl)amino)methyl)benzo[d]oxazol-2-yl)-2,2′-dimethyl-[1,1′-biphenyl]-3-yl)benzo[d]oxazol-5-yl)methyl)-L-proline], 3.8 nM; as for `Cc1c(-c2nc3cc(CN4CC[C@@H]4CO)c(OC(F)F)cc3o2)cccc1-c1cccc(-c2nc3cc(CN4CCC[C@H]4C(=O)O)c(OC(F)F)cc3o2)c1C` [Example 35, ((6-(difluoromethoxy)-2-(3′-(6-(difluoromethoxy)-5-(((R)-2-(hydroxymethyl)azetidin-1-yl)methyl)benzo[d]oxazol-2-yl)-2,2′-dimethyl-[1,1′-biphenyl]-3-yl)benzo[d]oxazol-5-yl)methyl)-L-proline], 0.91 nM.

The same assay, now with this note: range symbols.
With `Cc1c(-c2nc3cc(CN(C)[C@@H]4CCC[C@@H]4O)c(OC(F)F)cc3o2)cccc1-c1cccc(-c2nc3cc(CN4CCC[C@@H]4C(=O)O)c(OC(F)F)cc3o2)c1C` [Example 26, ((6-(difluoromethoxy)-2-(3′-(6-(difluoromethoxy)-5-((((1R,2S)-2-hydroxycyclopentyl) (methyl)amino)methyl)benzo[d]oxazol-2-yl)-2,2′-dimethyl-[1,1′-biphenyl]-3-yl)benzo[d]oxazol-5-yl)methyl)-D-proline], the IC50 lay within 0.1 to 5 nM. The same measure, in the same setting: as for `Cc1c(-c2nc3cc(CN(C)C[C@H]4CCCO4)c(OC(F)F)cc3o2)cccc1-c1cccc(-c2nc3cc(CN4CCC[C@H]4C(=O)O)c(OC(F)F)cc3o2)c1C` [Example 30, ((6-(difluoromethoxy)-2-(3′-(6-(difluoromethoxy)-5-((methyl(((R)-tetrahydrofuran-2-yl)methyl)amino)methyl)benzo[d]oxazol-2-yl)-2,2′-dimethyl-[1,1′-biphenyl]-3-yl)benzo[d]oxazol-5-yl)methyl)-L-proline], the figure is 0.1 to 5 nM; as for `Cc1c(-c2nc3cc(CN4CCC[C@H]4C(=O)O)c(OC(F)F)cc3o2)cccc1-c1cccc(-c2nc3cc(CN4CCC4(C)O)c(OC(F)F)cc3o2)c1C` (stereo partly drawn) [Example 37, ((6-(difluoromethoxy)-2-(3′-(6-(difluoromethoxy)-5-((2-hydroxy-2-methylazetidin-1-yl)methyl)benzo[d]oxazol-2-yl)-2,2′-dimethyl-[1,1′-biphenyl]-3-yl)benzo[d]oxazol-5-yl)methyl)-L-proline], 0.1 to 5 nM. On to `Cc1c(-c2nc3cc(CN4CCCC4C)c(OC(F)F)cc3o2)cccc1-c1cccc(-c2nc3cc(CN4CCC[C@H]4C(=O)O)c(OC(F)F)cc3o2)c1C` (stereo partly drawn) [Example 38, ((6-(difluoromethoxy)-2-(3′-(6-(difluoromethoxy)-5-((2-methylpyrrolidin-1-yl)methyl)benzo[d]oxazol-2-yl)-2,2′-dimethyl-[1,1′-biphenyl]-3-yl)benzo[d]oxazol-5-yl)methyl)-L-proline], for which the IC50 lay within 0.1 to 5 nM.
